Laboratory results from patent publication US20200061036A1, “ACECLIDINE ISOMERS AND SCALEMIC MIXTURES THEREOF FOR THE TREATMENT OF PRESBYOPIA” (Presbyopia Therapies, LLC, priority 2018, published 2020).

Experiments:
[1] = test system: subject; test: Net gain in lines of visual acuity at 45 centimeters after binocular instillation of aceclidine enantiomer solutions (Example 1, prophetic); format: in vivo; details: for Net gain in lines of visual acuity versus baseline, monocularly: first figure of cell; for Net gain in lines of visual acuity versus baseline, binocularly: second figure of cell
Method: Solutions containing scalemic mixtures of or enantiomerically pure aceclidine in 1.50% w/v polysorbate 80, 1.2% w/v hydroxypropylmethyl cellulose, 0.1% w/v disodium ethylenediaminetetraacetic acid, 0.1% w/v sorbate in 0.9% w/v sodium chloride buffered saline at a pH of 6.5 were instilled, binocularly in a subject. The subject's visual acuity at 45 centimeters was then tested both monocularly and binocularly. Net gain in lines of visual acuity versus baseline monocularly/binocularly are shown in Table 1 below at 1, 2 and 5 hours post-instillation.

[2] = test system: accommodation; details: cited from earlier work

Compound	Net gain in lines of visual acuity versus baseline, monocularly ([1]; 1 hour post-instillation)	Net gain in lines of visual acuity versus baseline, binocularly ([1]; 1 hour post-instillation)	Net gain in lines of visual acuity versus baseline, monocularly ([1]; 2 hours post-instillation)	Net gain in lines of visual acuity versus baseline, binocularly ([1]; 2 hours post-instillation)	Net gain in lines of visual acuity versus baseline, monocularly ([1]; 5 hours post-instillation)	Net gain in lines of visual acuity versus baseline, binocularly ([1]; 5 hours post-instillation)	induced accommodation ([2]; as little as, with a range of variability)	induced accommodation documented in presbyopes ([2]; 2% concentration, presbyopes)
CC(=O)OC1CN2CCC1CC2 (centres unmarked) [50/50, aceclidine]	2.00 lines	3.00 lines	1.50 lines	2.50 lines	1.00 lines	1.50 lines	–	–
aceclidine [25/75]	1.50/1.50 lines	1.50/1.50 lines	0.75 lines	1.25 lines	0.50 lines	1.00 lines	–	–
CC(=O)OC1CN2CCC1CC2 (centres unmarked) [100/0, aceclidine]	2.00 lines	3.50 lines	1.75 lines	3.00 lines	1.50 lines	2.50 lines	–	–
aceclidine [62.5/22.5]	1.40 lines	3.20 lines	1.70 lines	2.70 lines	1.20 lines	1.60 lines	–	–
CC(=O)OC1CN2CCC1CC2 (centres unmarked) [aceclidine]	–	–	–	–	–	–	−0.37 D	–
aceclidine [75/25]	1.50 lines	2.50 lines	1.20 lines	2.80 lines	0.70 lines	2.00 lines	–	–
CC[C@@H]1C(=O)OC[C@@H]1Cc1cncn1C [Pilocarpine, pilocarpine]	–	–	–	–	–	–	–	≥ −5 D
aceclidine [87.5/12.5]	1.75 lines	3.25 lines	1.40 lines	2.90 lines	0.90 lines	2.25 lines	–	–
